Like-named read-outs stand apart in the source and are kept apart here.
Legend:
[1] = test system: CCl4-induced liver fibrosis; assay: CCl4 model of liver fibrosis; format: in vivo, mice
[2] = test system: BDL-induced hepatic fibrosis; assay: bile duct ligation; format: in vivo; details: WT and SOD1mu mice, 60 mg/kg daily from day 11
[3] = test system: colI-GFP HSCs; assay: collagen promoter-driven GFP expression in HSCs; format: cell-based, mouse; details: SOD1mu and WT HSCs, Ang II 10^−6 M, 20 μM, 24 hours
[4] = molecular target: xanthine oxidase (Homo sapiens, UniProt P47989); assay: xanthine oxidase assay, same ROS read-out as NOX assays; format: biochemical
[5] = molecular target: T1, human Nox1 (Homo sapiens, UniProt Q9Y5S8); format: biochemical
T1 sequence (Q9Y5S8 1-564): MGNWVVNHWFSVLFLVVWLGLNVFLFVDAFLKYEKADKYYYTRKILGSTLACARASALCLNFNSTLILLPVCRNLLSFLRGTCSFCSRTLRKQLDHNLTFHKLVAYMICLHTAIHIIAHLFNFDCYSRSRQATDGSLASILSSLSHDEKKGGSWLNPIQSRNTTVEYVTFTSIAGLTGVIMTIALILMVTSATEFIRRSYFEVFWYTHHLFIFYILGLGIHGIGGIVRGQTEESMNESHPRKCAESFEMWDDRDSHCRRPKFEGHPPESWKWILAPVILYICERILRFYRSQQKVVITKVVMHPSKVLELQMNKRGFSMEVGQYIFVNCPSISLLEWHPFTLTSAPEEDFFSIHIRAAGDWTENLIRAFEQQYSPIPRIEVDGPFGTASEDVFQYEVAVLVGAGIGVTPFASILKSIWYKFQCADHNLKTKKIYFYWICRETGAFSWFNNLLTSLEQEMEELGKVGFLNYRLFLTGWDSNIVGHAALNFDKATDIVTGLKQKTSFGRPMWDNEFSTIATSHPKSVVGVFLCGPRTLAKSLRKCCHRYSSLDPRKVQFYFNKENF
T1 sequence (P13498 2-195 partner limits assumed): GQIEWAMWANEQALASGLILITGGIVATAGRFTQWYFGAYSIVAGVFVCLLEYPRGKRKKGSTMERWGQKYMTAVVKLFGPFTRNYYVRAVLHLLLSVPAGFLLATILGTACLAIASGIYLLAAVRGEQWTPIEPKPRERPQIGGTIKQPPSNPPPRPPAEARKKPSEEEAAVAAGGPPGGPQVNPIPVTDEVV

[6] = test system: HSCs; assay: ROS generation in DCFDA-loaded HSCs; format: cell-based, mouse; details: SOD1mu and WT HSCs, Ang II 10^−6 M, 20 μM
[7] = test system: Rac1; assay: Rac1 G-LISA activation assay in HSCs; format: cell-based, mouse; details: WT and SOD1mu HSCs, 20 μM, 24 hours
[8] = test system: NOX2-driven neutrophil oxidative burst; assay: neutrophil oxidative burst by flow cytometry in human whole blood; format: cell-based; details: up to 100uM
[9] = test system: HSCs; assay: gene expression in Ang II stimulated HSCs; format: cell-based, mouse; details: Ang II 10^−6 M, 20 μM, 24 hours
[10] = test system: activated HSCs; assay: gene expression in culture-activated primary HSCs; format: cell-based, mouse; details: 20 μM
[11] = test system: 170 different proteins; assay: in vitro off-target pharmacological profile; details: tested at 10 μM
[12] = molecular target: T2, human Nox4 (Homo sapiens, UniProt Q9NPH5); format: biochemical; details: read-out: Ki on Nox4; cell free membrane assay
T2 sequence (Q9NPH5 1-578): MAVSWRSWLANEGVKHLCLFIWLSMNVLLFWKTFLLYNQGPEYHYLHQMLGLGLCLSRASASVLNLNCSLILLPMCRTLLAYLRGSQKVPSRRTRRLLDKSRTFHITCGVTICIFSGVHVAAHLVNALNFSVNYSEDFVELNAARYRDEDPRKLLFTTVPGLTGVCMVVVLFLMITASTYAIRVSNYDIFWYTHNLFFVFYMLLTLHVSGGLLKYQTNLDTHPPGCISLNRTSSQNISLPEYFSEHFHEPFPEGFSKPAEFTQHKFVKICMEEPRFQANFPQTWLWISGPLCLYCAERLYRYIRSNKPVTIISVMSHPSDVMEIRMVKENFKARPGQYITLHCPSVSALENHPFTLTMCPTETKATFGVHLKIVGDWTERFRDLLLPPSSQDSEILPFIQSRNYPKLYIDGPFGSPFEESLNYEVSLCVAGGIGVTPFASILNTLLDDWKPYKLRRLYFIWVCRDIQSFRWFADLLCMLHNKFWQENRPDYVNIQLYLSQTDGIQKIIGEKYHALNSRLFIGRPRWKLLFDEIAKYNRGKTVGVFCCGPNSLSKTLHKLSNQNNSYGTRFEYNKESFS
T2 sequence (P13498 2-195 partner limits assumed): T1 sequence (P13498 2-195 partner limits assumed)

[13] = CCl4 treated SOD1mu mice, 60 mg/kg daily
[14] = SOD1mu and WT mice, 60 mg/kg daily

Sequence of xanthine oxidase (P47989 whole entry, species assumed): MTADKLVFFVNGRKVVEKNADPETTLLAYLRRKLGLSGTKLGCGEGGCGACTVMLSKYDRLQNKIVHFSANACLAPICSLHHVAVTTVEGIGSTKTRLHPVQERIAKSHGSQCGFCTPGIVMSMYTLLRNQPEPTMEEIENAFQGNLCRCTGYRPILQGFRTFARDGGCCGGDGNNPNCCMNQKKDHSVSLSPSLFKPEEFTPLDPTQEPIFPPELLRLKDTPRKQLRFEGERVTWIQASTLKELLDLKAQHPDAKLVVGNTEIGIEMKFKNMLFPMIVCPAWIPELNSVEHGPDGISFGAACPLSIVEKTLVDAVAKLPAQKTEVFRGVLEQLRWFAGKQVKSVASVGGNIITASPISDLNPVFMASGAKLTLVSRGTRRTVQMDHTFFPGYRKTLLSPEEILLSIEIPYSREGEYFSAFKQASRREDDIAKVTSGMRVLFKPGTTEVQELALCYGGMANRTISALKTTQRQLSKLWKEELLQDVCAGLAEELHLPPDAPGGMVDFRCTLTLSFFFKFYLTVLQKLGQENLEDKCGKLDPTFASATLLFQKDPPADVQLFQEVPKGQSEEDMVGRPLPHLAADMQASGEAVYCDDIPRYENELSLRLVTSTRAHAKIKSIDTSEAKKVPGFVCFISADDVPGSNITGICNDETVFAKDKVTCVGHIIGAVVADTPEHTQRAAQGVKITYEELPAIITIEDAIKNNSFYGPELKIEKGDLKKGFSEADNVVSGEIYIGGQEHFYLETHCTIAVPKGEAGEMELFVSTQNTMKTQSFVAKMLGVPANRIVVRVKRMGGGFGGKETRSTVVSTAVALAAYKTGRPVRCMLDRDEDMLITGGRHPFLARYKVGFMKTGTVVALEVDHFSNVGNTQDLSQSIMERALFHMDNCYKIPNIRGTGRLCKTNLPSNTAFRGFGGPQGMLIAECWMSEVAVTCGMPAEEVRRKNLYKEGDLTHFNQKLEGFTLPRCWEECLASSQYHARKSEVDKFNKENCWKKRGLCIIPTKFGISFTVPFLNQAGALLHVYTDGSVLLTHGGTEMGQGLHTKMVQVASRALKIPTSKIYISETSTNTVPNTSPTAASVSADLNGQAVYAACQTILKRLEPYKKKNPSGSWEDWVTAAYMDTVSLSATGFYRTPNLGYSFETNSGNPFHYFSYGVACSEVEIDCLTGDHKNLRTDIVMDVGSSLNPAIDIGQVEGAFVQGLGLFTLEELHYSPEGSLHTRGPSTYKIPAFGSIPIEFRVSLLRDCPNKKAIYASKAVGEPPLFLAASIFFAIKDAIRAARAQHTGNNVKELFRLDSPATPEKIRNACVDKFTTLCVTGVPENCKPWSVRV

CN(C)c1cccc(-c2c3c(=O)n(-c4ccccc4Cl)[nH]c3cc(=O)n2C)c1 [GKT137831, 2-(2-chlorophenyl)-4-[3-(dimethylamino)phenyl]-5-methyl-1H-pyrazolo[4,3-c]pyridine-3,6(2H,5H)-dione]
liver inflammation and injury ([1]; CCl4 treated SOD1mu and WT mice, 60 mg/kg daily): inhibited to similar lower levels | hepatic 4-HNE levels [1, 13]: suppressed | hepatic MDA levels (TBARS) [1, 13]: suppressed | hepatic mRNA expression of TNF-α [1, 13]: suppressed | serum ALT levels [1, 13]: reduced | macrophage infiltration and activation (F4/80, CD68) ([1]; CCl4 treated mice, 60 mg/kg daily): prevented macrophage infiltration and activation | hepatic collagen deposition (Sirius red staining) [1, 14]: reduced | hepatic mRNAs of collagen α1(I), TIMP-1 and TGF-β [1, 14]: reduced the induction of those genes to the same lower levels | CCl4-induced liver fibrosis ([1]; SOD1mu and WT mice, 60 mg/kg intragastric daily, last half of CCl4 treatment): attenuated | hepatic α-SMA expression ([1]; SOD1mu mice, immunohistochemistry and immunoblotting, 60 mg/kg daily): markedly decreased | BDL-induced hepatic fibrosis [2]: decreased | Ang II induced GFP fluorescence (collagen α1(I) promoter) [3]: suppressed | Ki [4]: > 100000 nM | scavenging of superoxide (O2•−) [4]: inability to scavenge superoxide | Ki [5]: 110 ± 30 nM | Ang II induced ROS generation [6]: suppressed | Rac1 activity after Ang II stimulation [7]: no effect | inhibition of neutrophil oxidative burst [8]: did not significantly inhibit | Ang II induced NOX1 and NOX4 mRNA expression ([9]; SOD1mut and WT HSCs): suppressed | Ang II induced collagen α1(I) and TIMP-1 mRNA expression ([9]; WT and SOD1mu HSCs): blocked | NOX4 and NOX1 mRNA expression ([10]; activated SOD1mu HSCs): suppressed | collagen α1(I) and Acta2 mRNA expression ([10]; activated SOD1mu and WT HSCs): reduced | inhibition of off-target proteins [11]: did not show any significant inhibition of any tested target protein

c1ccc([I+]c2ccccc2)cc1 [DPI, Diphenyliodonium, reference compound]
Ki [12]: 70 ± 10 nM | Ki ([4]; read-out: Ki on xanthine oxidase): 50 nM
